One compound from PMC10534214 (Food Chemistry: X, 2023) can be followed below.

The target of this assay is T1, SaDHPS (Staphylococcus aureus, UniProt O05701, R204H/P216R).
T1 construct: gene folP
Particulars: read-out: SaDHPS + SIZ-2FITC / IC50 (ng/mL); tracer SIZ-2FITC; 4 mM DHPPP, 40 mM Mg2+ in reaction buffer, pH 8.0, 37 C, 2 min.

Regarding `NS(=O)(=O)c1ccccc1` [BSN], the IC50 was 55.1 nM.
